# Reference: the supplement of paper PMC10307832
# Legend:
# Test in all cases: relative viability (nuclei count vs DMSO), 5 days (fraction); higher = more cells survive
# Pazopanib + Phenformin = compound: Cc1ccc(Nc2nccc(N(C)c3ccc4c(C)n(C)nc4c3)n2)cc1S(N)(=O)=O [Pazopanib] + N=C(N)NC(=N)NCCc1ccccc1 [Phenformin] (partner 250 µM)
# In short: (§1)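 After 5 days of treatment, lung cancer cells in 1536-well plates were fixed and stained in a single step (final 0.05% Triton X-100, 1% formaldehyde, 1 ug/ml Hoechst) and their nuclei counted on 4× images. Treatment had been applied by pin tool the day after seeding as one drug alone or as a fixed anchor-drug dose with five library-drug doses (not always all listed) in √10 steps. Relative viability is the nuclei count of treated wells divided by that of vehicle wells, and values are medians of duplicate plates.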
# Pazopanib + Palbociclib = compound: Cc1ccc(Nc2nccc(N(C)c3ccc4c(C)n(C)nc4c3)n2)cc1S(N)(=O)=O [Pazopanib] + CC(=O)c1c(C)c2cnc(Nc3ccc(N4CCNCC4)cn3)nc2n(C2CCCC2)c1=O [Palbociclib] (partner 0.5 µM)
# In short: as §1
# Pazopanib + Tozasertib = compound: Cc1ccc(Nc2nccc(N(C)c3ccc4c(C)n(C)nc4c3)n2)cc1S(N)(=O)=O [Pazopanib] + Cc1cc(Nc2cc(N3CCN(C)CC3)nc(Sc3ccc(NC(=O)C4CC4)cc3)n2)n[nH]1 [Tozasertib] (partner 0.1 µM)
# In short: as §1
# Pazopanib + Alpelisib = compound: Cc1ccc(Nc2nccc(N(C)c3ccc4c(C)n(C)nc4c3)n2)cc1S(N)(=O)=O [Pazopanib] + Cc1nc(NC(=O)N2CCC[C@H]2C(N)=O)sc1-c1ccnc(C(C)(C)C(F)(F)F)c1 [Alpelisib] (partner 2 µM)
# In short: as §1
Cell Line,relative viability (Pazopanib + Phenformin; first compound 0.01 µM),relative viability (Pazopanib + Phenformin; first compound 0.03162 µM),relative viability (Pazopanib + Phenformin; first compound 0.1 µM),relative viability (Pazopanib + Phenformin; first compound 0.3162 µM),relative viability (Pazopanib + Phenformin; first compound 1 µM),relative viability (Pazopanib + Palbociclib; first compound 0.01 µM),relative viability (Pazopanib + Palbociclib; first compound 0.03162 µM),relative viability (Pazopanib + Palbociclib; first compound 0.1 µM),relative viability (Pazopanib + Palbociclib; first compound 0.3162 µM),relative viability (Pazopanib + Palbociclib; first compound 1 µM),relative viability (Pazopanib + Tozasertib; first compound 0.01 µM),relative viability (Pazopanib + Tozasertib; first compound 0.03162 µM),relative viability (Pazopanib + Tozasertib; first compound 0.1 µM),relative viability (Pazopanib + Tozasertib; first compound 0.3162 µM),relative viability (Pazopanib + Tozasertib; first compound 1 µM),relative viability (Pazopanib + Alpelisib; first compound 0.01 µM),relative viability (Pazopanib + Alpelisib; first compound 0.03162 µM),relative viability (Pazopanib + Alpelisib; first compound 0.1 µM),relative viability (Pazopanib + Alpelisib; first compound 0.3162 µM),relative viability (Pazopanib + Alpelisib; first compound 1 µM)
NCI-H23,0.565,0.87,0.905,0.798,0.783,0.42,0.531,0.614,0.594,0.586,0.373,0.341,0.359,0.458,0.392,0.676,0.73,0.738,0.693,0.919
NCI-H322M,0.844,0.866,0.779,0.854,0.791,0.495,0.522,0.478,0.482,0.55,0.536,0.518,0.547,0.448,0.476,0.846,1.03,0.779,0.632,0.926
NCI-H358,0.388,0.384,0.37,–,0.548,0.134,0.141,0.121,0.112,0.122,0.109,0.0888,0.104,–,0.0878,1.06,0.892,0.91,0.864,0.922
NCI-H441,0.741,0.911,0.811,0.986,1.01,0.24,0.248,0.198,0.211,0.273,0.798,0.683,0.784,0.558,0.518,0.71,0.73,0.987,0.655,0.728
NCI-H460,0.578,0.546,0.525,0.548,0.562,0.212,0.287,0.122,0.0783,0.262,0.564,0.503,0.523,0.494,0.393,0.432,0.529,0.52,0.531,0.6
NCI-H520,0.386,0.545,0.507,0.705,0.537,0.185,0.23,0.244,0.224,0.188,0.458,0.416,0.452,0.438,0.386,–,1.04,0.884,0.873,0.816
NCI-H647,0.483,0.643,0.541,0.663,0.615,0.345,0.463,0.363,0.361,0.29,0.23,0.279,0.395,0.43,0.321,1.37,1.31,1.35,1.19,1.11
NCI-H650,0.42,0.473,0.438,0.466,0.444,0.344,0.381,0.355,0.337,0.315,0.688,0.826,0.691,0.804,0.655,1.06,1.35,1.19,1.11,1.08
NCI-H661,0.275,0.281,0.255,0.272,0.316,0.376,0.386,0.427,0.422,0.396,0.343,0.355,0.349,0.347,0.344,0.549,0.581,0.595,0.669,0.866
NCI-H727,0.455,0.522,0.57,0.584,0.682,0.662,–,0.634,0.597,0.718,0.599,0.543,0.622,0.631,0.704,0.634,0.693,0.637,0.664,0.717
NCI-H838,0.548,0.648,0.587,0.647,0.753,0.181,0.216,0.243,0.258,0.246,0.278,0.247,0.29,0.28,0.295,1.01,1.02,1.07,1.08,1.11
NCI-H1355,0.42,0.481,0.406,0.455,0.461,0.33,0.4,0.426,0.407,0.45,0.582,0.579,0.513,0.55,0.553,–,0.765,0.99,0.871,0.849
NCI-H1395,0.384,0.441,0.454,0.511,0.51,0.572,0.647,0.659,0.6,0.625,0.793,0.715,0.764,0.915,0.747,1.02,1.03,1.02,1.12,1.17
NCI-H1437,0.355,0.312,0.34,0.303,0.338,0.327,0.313,0.284,0.338,0.313,0.414,0.42,0.408,0.412,0.375,0.938,1.02,0.964,0.938,1.05
NCI-H1651,0.359,0.351,0.343,0.373,0.379,0.51,0.555,0.523,0.489,0.555,0.708,0.603,0.733,0.725,0.685,0.956,1.08,0.913,0.88,1.13
NCI-H1666,0.576,0.581,0.575,0.613,0.67,0.636,0.604,0.607,0.694,0.667,0.573,0.649,0.625,0.609,0.648,1.07,1.06,1.02,0.954,1.16
NCI-H1734,0.353,0.416,0.417,0.495,0.418,0.33,0.369,0.353,0.378,0.344,0.262,0.242,0.28,0.261,0.234,0.632,0.702,0.743,0.65,0.769
NCI-H1755,0.552,0.636,0.673,0.65,0.671,0.423,0.454,0.47,0.457,0.467,0.584,0.614,0.561,0.557,0.567,0.814,0.906,0.917,0.93,0.914
NCI-H1793,–,0.419,0.394,0.425,0.421,–,0.352,0.3,0.341,0.399,–,0.347,0.275,0.367,0.374,–,0.687,0.62,0.914,0.732
NCI-H1915,0.402,0.364,0.367,0.36,0.343,0.508,0.525,0.524,0.541,0.536,0.455,0.422,0.468,0.407,0.399,1.06,1.11,0.971,1.04,0.952
NCI-H1944,–,0.191,0.218,0.227,0.228,0.287,0.357,0.33,0.332,0.41,–,0.234,0.258,0.252,0.257,0.751,0.838,0.839,0.863,0.982
NCI-H1975,0.399,0.437,0.445,0.471,0.502,0.531,0.552,0.608,0.601,0.557,0.665,0.693,0.854,0.742,0.581,0.684,0.648,0.608,0.74,0.662
NCI-H1993,–,0.457,0.502,0.591,0.496,–,0.617,0.631,0.517,0.616,–,0.54,0.656,0.589,0.579,0.67,0.7,0.759,0.703,0.733
NCI-H2009,0.504,0.47,0.451,0.453,0.388,0.222,0.218,0.185,0.271,0.258,0.787,0.738,0.613,0.801,0.51,1.08,1.19,1.26,1.09,1
NCI-H2023,0.421,0.43,0.398,0.444,0.434,0.36,0.412,0.456,0.38,0.434,0.467,0.318,0.38,0.331,0.242,0.58,0.567,0.62,0.57,0.591
NCI-H2085,0.624,0.835,0.683,0.694,0.833,0.483,0.462,0.487,0.48,0.462,0.738,0.848,0.828,0.786,0.776,0.964,0.974,1.02,0.995,1.05
NCI-H2087,0.373,0.464,0.445,0.483,0.513,0.21,0.223,0.275,0.271,0.256,0.298,0.27,0.279,0.281,0.256,1.08,1.14,1.22,0.979,1.06
